Assays:
[1] = molecular target: Cytochrome P450 3A4 (Homo sapiens, UniProt P08684); assay: Time dependent inhibition of CYP3A4 in human liver microsomes at 40 uM using midazolam as substrate measured after 5 to 20 mins in presence of NADPH by LC/MS/MS analysis; assay type: ADME, Microsome
[2] = molecular target: T1, Cytochrome P450 2C8 (Homo sapiens, UniProt P10632); assay: Time dependent inhibition of CYP2C8 in human liver microsomes at 40 uM measured after 5 to 20 mins in presence of NADPH by LC/MS/MS analysis; assay type: ADME, Microsome
T1 sequence (P10632 whole entry): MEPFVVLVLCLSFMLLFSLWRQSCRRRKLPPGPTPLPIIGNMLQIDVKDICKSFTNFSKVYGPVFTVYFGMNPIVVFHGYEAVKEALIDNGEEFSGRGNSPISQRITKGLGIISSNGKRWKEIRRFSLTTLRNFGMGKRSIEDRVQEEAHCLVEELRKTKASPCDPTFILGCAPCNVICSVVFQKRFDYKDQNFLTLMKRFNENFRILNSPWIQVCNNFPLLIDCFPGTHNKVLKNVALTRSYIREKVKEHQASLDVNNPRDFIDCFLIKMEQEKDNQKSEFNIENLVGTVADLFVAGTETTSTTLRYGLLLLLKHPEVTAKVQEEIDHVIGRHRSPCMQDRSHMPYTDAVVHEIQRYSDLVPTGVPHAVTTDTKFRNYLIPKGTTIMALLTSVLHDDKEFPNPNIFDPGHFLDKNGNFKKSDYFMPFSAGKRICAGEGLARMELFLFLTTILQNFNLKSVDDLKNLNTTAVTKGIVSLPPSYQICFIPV

Chain of Cytochrome P450 3A4 (P08684 whole entry): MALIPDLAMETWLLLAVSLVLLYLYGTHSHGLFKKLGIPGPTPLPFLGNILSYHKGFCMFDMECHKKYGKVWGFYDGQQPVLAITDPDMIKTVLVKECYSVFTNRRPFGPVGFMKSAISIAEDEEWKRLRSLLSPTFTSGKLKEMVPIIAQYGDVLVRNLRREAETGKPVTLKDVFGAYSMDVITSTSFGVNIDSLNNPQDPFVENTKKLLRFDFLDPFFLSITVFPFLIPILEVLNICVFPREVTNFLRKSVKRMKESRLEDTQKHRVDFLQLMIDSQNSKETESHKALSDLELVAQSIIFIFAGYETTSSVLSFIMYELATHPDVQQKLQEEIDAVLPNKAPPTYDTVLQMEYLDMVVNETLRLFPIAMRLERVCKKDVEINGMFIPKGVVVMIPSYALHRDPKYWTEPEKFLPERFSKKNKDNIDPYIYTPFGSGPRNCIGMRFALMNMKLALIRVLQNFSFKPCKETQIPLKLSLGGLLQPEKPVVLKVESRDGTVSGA

C[C@@H](C1CC1)N1Cc2cc(-c3ccn4nc(N)c(C(=O)N[C@H]5CC[C@@](C)(O)CC5)c4n3)cc(OC(F)F)c2C1=O
IC50 [1]: > 20 µM
IC50 [2]: > 20 µM
